Reference: US20260109951A1, “METHODS AND COMPOSITIONS FOR INDUCING HEMATOPOIETIC CELL DIFFERENTIATION” (FATE THERAPEUTICS, INC., priority 2022, published 2026)

Legend:
tumor = assay: anti-tumor efficacy of treated, cryopreserved iNK cells; assay type: cell-based; conditions: treated and cryopreserved cells versus untreated or control cells, FIG. 15
Source text: Cells that have been treated with CH-223191 were cryopreserved in liquid nitrogen long term. To assess recovery of the cells from cryopreservation, the cells were thawed and cultured in B0 medium for a period of 7 days and cell counts taken during the course of this culture. […] Further, cells that have been treated with CH-223191 and cryopreserved in liquid nitrogen were further assessed for function in vitro and in vivo.

iPSC-derived NK cells = assay: iNK expansion by co-culture with IL21 and 41BBL expressing irK562 feeder cells; assay type: cell-based, human; conditions: about 3 μM added at day 2 of about 7 day expansion, versus without AhR inhibitor, FIG. 14
Source text: To modulate effector cell activation during the cell expansion stage of iPSC differentiation, an AhR (aryl hydrocarbon receptor) inhibitor was discovered to improve effector cell function, including anti-tumor efficacy. iPSCs were differentiated into definitive HE cells as previously described, and were subsequently differentiated into pre-expansion NK cells, at which point they were expanded by co-culture with IL21 and 41BBL expressed by irK562 feeder cells for about 7 days. An exemplary AhR inhibitor, CH-223191 (among others such as UM729, UM171, SR1), was added to the expansion culture at day 2 with a final concentration of about 3 μM to potentiate expansion signals.

TNF-α production = conditions: previously shown; cited from earlier work
[1] = system: hiPSC-derived CD34+ HE cells; assay: hiPSC monolayer differentiation to definitive HE, flow cytometric analysis of D10 cells; assay type: cell-based, human
Protocol: To initiate differentiation towards the hematopoietic lineage, hiPSCs were seeded as a monolayer on Day (D) 0 in the maintenance medium and allowed to adhere and expand for about 24 hours. The monolayers were maintained until around D5-D6 at which point they were dissociated into single cells and seeded as a low-density monolayer until differentiation at around D10. The D10 dissociated single cell population was sorted by FACS for further analysis and marker profiling for definitive HE characterization. Alternatively, or in addition thereto, as disclosed herein, one or more of anti-CD82, anti-CD34, and anti-CD43 antibodies were used for cell sorting the D10 cell population to obtain definitive HE cells comprising a phenotype of CD82^+, CD34^+CD82^+ or CD34^+CD43^−CD82^+, which were optionally cryopreserved in cryopreservation medium or continued with effector cell differentiation.
The flow cytometric analysis of D10 cells differentiated under control conditions was compared to cells differentiated under cytokine conditions that includes BMP4. RUNX1 is a transcription factor expressed in the cell and believed to be mostly associated with HE identity. The cells were gated on single/live events. The […] cells and the […] cells were then stained with anti-human antibodies and analyzed by LEGENDScreen™. […]

Cc1ccccc1N=Nc1ccc(NC(=O)c2ccnn2C)c(C)c1 [CH-223191]
anti-tumor efficacy (tumor): enhanced anti-tumor efficacy at endpoint | fold expansion and yield of differentiated NK cells (iPSC-derived NK cells): greater fold expansion and yield of differentiated NK cells

Fc1ccc(-c2nc(C3CCNCC3)sc2-c2ccnc(NC3CC3)n2)cc1 [DBM1285, cyclopropyl-{4-[4-(4-fluorophenyl)-2-piperidin-4-yl-thiazol-5-yl]pyrimidin-2-yl}amine]
TNF-α production (TNF-α production): inhibit TNF-α production | maintenance of CD82 expression (CD82+RUNX1+ subpopulation of CD34+ HE cells) ([1]; p38 MAPK inhibitor added to composition for obtaining definitive HE cells from iPSC): beneficial to maintain CD82 expression

B1: BMP4: bone morphogenetic protein, cytokine, BMP activator (protein, UniProt P12644 293-408, looked up)
Bone morphogenetic protein 4: SPKHHSQRARKKNKNCRRHSLYVDFSDVGWNDWIVAPPGYQAFYCHGDCPFPLADHLNSTNHAIVQTLVNSVNSSIPKACCVPTELSAISMLYLDEYDKVVLKNYQEMVVEGCGCR
specification of RUNX1+ HE ([1]; D10 cells, cytokine conditions including BMP4 versus control conditions, FIG. 1): specification of RUNX1^+ HE is cytokine driven
